# Where two headings read alike, the source gives them in different places. Bridge positions count the residues as written; N and C are the ends. Square brackets hold non-standard residues; d marks the D form. Peptide text beside a SMILES is read from it. * marks the point of attachment. Ileψ(thiazoline)Cys = CC[C@H](C)[C@H](N)C1=N[C@H](C(=O)*)CS1; dOrn = NCCC[C@@H](N)C(=O)O
# Tests used:
# [1] = system: lptB1(G33C); assay: Disk diffusion assay; type: cell-based, E. coli
# Procedure: (§1) Zones of inhibition were measured in disk diffusion assays of wild type, IptB1, and suppressors IptB1(R144H) and IptB1(G33C) pictured in FIG. 6B. Assays were conducted with 6-mm disks. Numbers outside of parentheses report the diameter of the zone of total growth inhibition (in mm), while numbers inside parenthesis report the diameter of the zone of partial growth inhibition.
# (§2) Disk diffusion assays were performed as described in Sherman et al., Proc. Natl. Acad. Sci. USA 2014, 111, 4982-4987. Premade Sensi-Disc (BD-Beckton, Dickinson and Company) were used for bacitracin 10IU, erythromycin 15 μg, novobiocin 30 μg, and rifampin 5 μg.
# [2] = system: lptB1(R144H); assay: Disk diffusion assay; type: cell-based, E. coli; conditions: for Zone of inhibition, diameter of the zone of total growth inhibition: 6-mm disks, bacitracin 10IU, erythromycin 15 μg, novobiocin 30 μg, rifampin 5 μg, nalidixic acid 5 μg
# Procedure: as §1, §2
# [3] = system: lptB1; assay: Disk diffusion assay; type: cell-based, E. coli; conditions: for Zone of inhibition, diameter of the zone of total growth inhibition: 6-mm disks, bacitracin 10IU, erythromycin 15 μg, novobiocin 30 μg, rifampin 5 μg, nalidixic acid 5 μg; for zone of inhibition at 15 µg/disc / zone of inhibition at 5 µg/disc: Escherichia coli
# Procedure: as §1, §2
# [4] = system: wild type; assay: Disk diffusion assay; type: cell-based, E. coli; conditions: 6-mm disks, bacitracin 10IU, erythromycin 15 μg, novobiocin 30 μg, rifampin 5 μg, nalidixic acid 5 μg
# Procedure: as §1, §2
# [5] = system: IptFG(ch) mutant; assay: Rescue of growth of coupling helix mutant (plating and disk assays); type: cell-based, E. coli; conditions: disks on LB plates, each disk 5 μg compound (FIG. 15)
# Procedure: FIG. 8B is a series of pictures of bacterial overnight cultures grown in minimal medium. The cultures were serially diluted ten-fold and spotted onto LB agar plates with and without compounds.
# FIG. 15 is a picture of bacterial lawns grown on plates in the presence of disks containing antibiotics. […] Strains were grown overnight in minimal media and then plated on LB plates. Each disk contained 5 μg compound.
# The coupling helices in LptFG each contain a strictly-conserved glutamate, and changing both glutamates to alanine (IptFG(ch)) causes a lethal loss of function (FIG. 8B, LB panel). […] Because novobiocin also contacts R91 (FIG. 7C), we speculated that it might rescue growth of IptFG(ch) by masking the charge. […] We conclude that novobiocin suppresses Lpt defects in vivo by interacting with LptB at R91; therefore, novobiocin interacts with LptB in cells in a similar manner to that observed in the crystal structure.
# as §2
# Efficiency of plating assays were performed on indicated media using the method described in Butler et al., J. Bacteriol. 2013, 195, 4639-4649.
# [6] = target: T1, LptB (Escherichia coli, UniProt P0A9V1); assay: Fbn-LptB binding assay (19F NMR linewidth); design: species or system E. coli
# T1 construct: LptB-His (full-length LptB with a C-terminal His8 tag); His8 (C); made in house; host or cells: E. coli KRX (Promega)
# T1 sequence (P0A9V1 whole entry): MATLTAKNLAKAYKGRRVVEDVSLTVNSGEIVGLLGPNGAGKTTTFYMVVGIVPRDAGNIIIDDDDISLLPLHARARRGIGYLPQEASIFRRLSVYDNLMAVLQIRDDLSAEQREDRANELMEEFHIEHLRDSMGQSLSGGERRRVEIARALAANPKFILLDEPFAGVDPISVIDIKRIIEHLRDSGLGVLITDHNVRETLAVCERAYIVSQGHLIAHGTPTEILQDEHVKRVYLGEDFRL
# Procedure: FIG. 12 is a graph showing the ^19F NMR linewidth of fluorobiocin (fbn) plotted vs. log[LptB]. Data were analyzed with GraphPad Prism 7 software using a nonlinear fit, log(agonist) vs. response with an R^2=0.9909.
# We soaked novobiocin into LptB-ADP crystals and obtained a 2.0-Å structure of a co-complex (FIG. 7A, FIG. 11). ADP is still present in the co-complex, and novobiocin binds adjacent to the groove in LptB that accommodates the coupling helices from LptFG (FIG. 7B, FIG. 11). Coupling helices are a conserved motif in ABC systems that connect the transmembrane domains (here, LptFG) to the nucleotide-binding domains (here, LptB). […] This residue is invariant in LptB, and non-conservative substitutions at this position are lethal because they disrupt proper formation of the LptB2FG complex. Novobiocin thus binds a critical position at the LptBLptFG interface. To estimate the affinity of novobiocin for LptB, we synthesized an otherwise identical analogue in which a phenolic hydroxyl was substituted with a 19F-label (fluorobiocin, FIG. 8A).
# 5 mL of the buffered Fbn ligand solution was prepared by mixing 200 μL of 25X TBS pH 8.0, 125 μL 200 mM ADP pH 7.0, 125 μL 200 mM MgCl2, 4.43 μL of 56.5 mM Fbn, 4.55 mL of D20. Final [Tris-Cl]=50 mM, [NaCl]=150 mM, [ADP]=5 mM, [MgCl2]=5 mM, [Fbn]=50 μM. […]
# [7] = system: Acinetobacter baumannii Novo^R; assay: Minimal inhibitory concentrations, checkerboard microdilution; type: cell-based; conditions: grown at 37° C. for 24 h
# Procedure: (§3) Checkerboard microdilution assays between polymyxin B and novobiocin were performed in wild-type strains (unless otherwise noted) grown at 37° C. for 24 h. Checkerboard data (FIG. 1A-1F) are representative of at least three biological replicates. The following strains were tested: A) Wild-type Escherichia coli, ATCC 25922; B) Wild-type Enterobacter cloacae; ATCC 13047) Wild-type Klebsiella pneumoniae, ATCC 700721; D) Wild-type Pseudomonas aeruginosa, ATCC 15692 (PAO1); E) Wild-type Acinetobacter baumannii, ATCC 19606; F) novobiocin-resistant Acinetobacter baumannii, ATCC 19606 gyrB(R150C).
# [8] = system: Escherichia coli; assay: as above; type: cell-based; conditions: grown at 37° C. for 24 h
# Procedure: as §3
# [9] = system: Klebsiella pneumoniae; assay: as above; type: cell-based; conditions: grown at 37° C. for 24 h
# Procedure: as §3
# [10] = system: Pseudomonas aeruginosa; assay: as above; type: cell-based; conditions: grown at 37° C. for 24 h
# Procedure: as §3
# [11] = system: E. coli strain ATCC 25922; assay: Neutropenic mouse thigh infection efficacy; type: in vivo; conditions: for Average log10 CFU/g of thigh: neutropenic CD-1 mice, 26 hours post infection
# Procedure: Female CD-1 mice from Charles River Laboratories were allowed to acclimate for 5 days prior to start of study. Animals were housed four per cage with free access to food and water. Mice received two doses of cyclophosphamide on days −4 and −1 with 150 mg/kg and 100 mg/kg delivered IP, respectively. All procedures were performed to NeoSome IACUC policies and guidelines as well as OLAW standards.
# E. coli strain ATCC 25922 was prepared for infection from an overnight plate culture. A portion of the plate was resuspended in sterile saline and adjusted to an OD of 0.15 at 625 nm. The adjusted bacterial suspension was further diluted to target an infecting inoculum of 1.5×10^5 CFU/mouse, the actual inoculum size for E. coli was 1.45×10^5 CFU/mouse. Plate counts of the inoculum was performed to confirm inoculum concentration.
# Mice were inoculated with 100 μL of the prepared bacterial suspension via intramuscular injection into the right rear thigh.
# Beginning at two hours post infection, mice were dosed with test agents subcutaneously at 10 mL/kg. A second dose of test agents was delivered at 6 hours post infection. For co-administered therapy, test agents were delivered separately at two different injection sites. Four animals were dosed per group. One group of four mice were euthanized at initiation of therapy (T=2 h) and CFUs determined. All remaining mice were euthanized at 26 hours post infection. At termination, thighs were aseptically excised, weighed, and homogenized to a uniform consistency in 2 mL of sterile saline. The homogenate was serially diluted and plated on bacterial growth media. The CFUs were enumerated after overnight incubation. The average and standard deviations for each group were determined.
# Neutropenic mice infected with E. coli were treated with novobiocin, polymyxin B, or a combination of the two for the evaluation of efficacy is a thigh infection model.
# [12] = 6-mm disks, bacitracin 10IU, erythromycin 15 μg, novobiocin 30 μg, rifampin 5 μg, nalidixic acid 5 μg
# [13] = Escherichia coli, read-out: Zone of inhibition, diameter of the zone of partial growth inhibition (in parentheses)
# [14] = read-out: Zone of inhibition, diameter of the zone of partial growth inhibition (in parentheses)
# [15] = read-out: Zone of inhibition, diameter of the zone of total growth inhibition
# [16] = Escherichia coli, read-out: Zone of inhibition, diameter of the zone of total growth inhibition
# [17] = PMB 0.03 mg/kg (total 0.06) BID/SC
# [18] = PMB 0.1 mg/kg (total 0.2) BID/SC
# [19] = PMB 0.3 mg/kg (total 0.6) BID/SC
molecule,measurement,setting,value
CC[C@H](C)[C@H](N)C1=N[C@H](C(=O)N[C@@H](CC(C)C)C(=O)N[C@H](CCC(=O)O)C(=O)N[C@H](C(=O)N[C@H]2CCCCNC(=O)[C@H](CC(N)=O)NC(=O)[C@@H](CC(=O)O)NC(=O)[C@H](Cc3cnc[nH]3)NC(=O)[C@@H](Cc3ccccc3)NC(=O)[C@H]([C@@H](C)CC)NC(=O)[C@@H](CCCN)NC2=O)[C@@H](C)CC)CS1 [Bacitracin] ({Ileψ(thiazoline)Cys}-L[dE]IK[dOrn]I[dF]H[dD]N; lactam 4-C),"Zone of inhibition, diameter of the zone of partial growth inhibition (in parentheses)",[1]; [12],(8) mm
same,"Zone of inhibition, diameter of the zone of total growth inhibition",[2],17 mm
same,"Zone of inhibition, diameter of the zone of total growth inhibition",[3],17 mm
same,"Zone of inhibition, diameter of the zone of total growth inhibition",[4],<6 mm
CC[C@H]1OC(=O)[C@H](C)[C@@H](O[C@H]2C[C@@](C)(OC)[C@@H](O)[C@H](C)O2)[C@H](C)[C@@H](O[C@@H]2O[C@H](C)C[C@H](N(C)C)[C@H]2O)[C@](C)(O)C[C@@H](C)C(=O)[C@H](C)[C@@H](O)[C@]1(C)O [Erythromycin],zone of inhibition at 15 µg/disc,[1]; [13],11 mm
same,zone of inhibition at 15 µg/disc,[2]; [13],16 mm
same,zone of inhibition at 15 µg/disc,[3]; [14],21 mm
same,zone of inhibition at 15 µg/disc,[3]; [15],16 mm
same,zone of inhibition at 15 µg/disc,[4]; [13],8 mm
CCn1cc(C(=O)O)c(=O)c2ccc(C)nc21 [Nalidixic acid],zone of inhibition at 5 µg/disc,[1]; [13],14 mm
same,zone of inhibition at 5 µg/disc,[1]; [16],12 mm
same,zone of inhibition at 5 µg/disc,[2]; [13],20 mm
same,zone of inhibition at 5 µg/disc,[2]; [16],17 mm
same,zone of inhibition at 5 µg/disc,[3]; [14],21 mm
same,zone of inhibition at 5 µg/disc,[3]; [15],18 mm
same,zone of inhibition at 5 µg/disc,[4]; [13],14 mm
same,zone of inhibition at 5 µg/disc,[4]; [16],11 mm
same,suppression of lethality of IptFG(ch),[5],"but not nalidixic acid (NA), suppressed the lethality of IptFG(ch)"
CO[C@H]1/C=C/O[C@@]2(C)Oc3c(C)c(O)c4c(O)c(c(/C=N/N5CCN(C)CC5)c(O)c4c3C2=O)NC(=O)/C(C)=C\C=C\[C@H](C)[C@H](O)[C@@H](C)[C@@H](O)[C@@H](C)[C@H](OC(C)=O)[C@@H]1C [Rifampicin],"Zone of inhibition, diameter of the zone of total growth inhibition",[1]; [12],9 mm
same,"Zone of inhibition, diameter of the zone of total growth inhibition",[2],24 mm
same,"Zone of inhibition, diameter of the zone of total growth inhibition",[3],17 mm
same,"Zone of inhibition, diameter of the zone of partial growth inhibition (in parentheses)",[4],9 mm
same,"Zone of inhibition, diameter of the zone of total growth inhibition",[4],8 mm
"CO[C@@H]1[C@@H](OC(N)=O)[C@@H](O)[C@H](Oc2ccc3c(O)c(NC(=O)c4ccc(F)c(CC=C(C)C)c4)c(=O)oc3c2C)OC1(C)C [fluorobiocin, (3R,4S,5R,6R)-6-((3-(4-fluoro-3-(3-methylbut-2-en-1-yl)benzamido)-4-hydroxy-8-methyl-2-oxo-2H-chromen-7-yl)oxy)-5-hydroxy-3-methoxy-2,2-dimethyltetrahydro-2H-pyran-4-yl carbamate]",Kd,"[6]; 19F NMR linewidth vs. log[LptB], nonlinear fit, [Fbn]=50 μM, 5 mM ADP",18 µM
same,affinity for LptB in words,[6]; Solution NMR binding experiments,low micromolar binder
polymyxin B,MIC,[7],0.28 µg/mL
same,MIC,[8],0.11 µg/mL
same,MIC,[9],1 µg/mL
same,MIC,[10],>1 µg/mL
same,change in log10 CFU/g of thigh from 2 hour control,[11]; [17],3.91 log10 CFU/g of thigh
same,change in log10 CFU/g of thigh from 26 hour controls,[11]; [17],−0.18 log10 CFU/g of thigh
same,change in log10 CFU/g of thigh from 2 hour control,[11]; [18],3.95 log10 CFU/g of thigh
same,change in log10 CFU/g of thigh from 26 hour controls,[11]; [18],−0.13 log10 CFU/g of thigh
same,change in log10 CFU/g of thigh from 2 hour control,[11]; [19],3.38 log10 CFU/g of thigh
same,change in log10 CFU/g of thigh from 26 hour controls,[11]; [19],−0.70 log10 CFU/g of thigh
same,change in log10 CFU/g of thigh from 2 hour control,[11]; PMB 1 mg/kg (total 2) BID/SC,0.49 log10 CFU/g of thigh
same,change in log10 CFU/g of thigh from 26 hour controls,[11]; PMB 1 mg/kg (total 2) BID/SC,−3.60 log10 CFU/g of thigh
same,reductions in CFUs from the 26 hour infection controls,[11]; Polymyxin B as a single agent at 0.2 mg/kg,0.70 log10 CFU/gram of thigh
same,reductions in CFUs from the 26 hour infection controls,[11]; Polymyxin B as a single agent at 1 mg/kg,3.60 log10 CFU/gram of thigh
same,Average log10 CFU/g of thigh,[11]; [17],9.44 log10 CFU/g of thigh
same,Average log10 CFU/g of thigh,[11]; [18],9.49 log10 CFU/g of thigh
same,Average log10 CFU/g of thigh,[11]; [19],8.92 log10 CFU/g of thigh
same,Average log10 CFU/g of thigh,[11]; PMB 1 mg/kg (total 2) BID/SC,6.02 log10 CFU/g of thigh
